Experimental data as given in the NIST ThermoML archive (doi:10.1021/je049895b).
“And” between values parts separate entries of the source, which are not always exact repeats. Equal entries are not always repeated. ± gives the expanded uncertainty stated by the source.

Assays:
[1] = 101.33 kPa, Liquid; for viscosity: Capillary tube (Ostwald / Ubbelohde) method
[2] = xn = mol fraction of the nth substance listed; details: 101.33 kPa, Liquid; for viscosity: Capillary tube (Ostwald / Ubbelohde) method

Work on C1CCCC1 [cyclopentane] yielded a mass density ([1]; 293.15 K) of 744.43 ± 0.51 kg/m3, a speed of sound ([1]; 293.15 K) of 1232 ± 2 m/s and a viscosity ([1]; 293.15 K) of 0.438 ± 0.02 mPa·s. For the same molecule, the mass density ([1]; 298.15 K) was 739.47 ± 0.51 kg/m3, the speed of sound ([1]; 298.15 K) was 1206 ± 2 m/s and the viscosity ([1]; 298.15 K) was 0.415 ± 0.02 mPa·s. The mass density ([1]; 303.15 K) was 734.47 ± 0.51 kg/m3, the speed of sound ([1]; 303.15 K) was 1180 ± 2 m/s and the viscosity ([1]; 303.15 K) was 0.394 ± 0.02 mPa·s. The mass density ([1]; 308.15 K) was 729.42 ± 0.51 kg/m3, the speed of sound ([1]; 308.15 K) was 1154 ± 2 m/s and the viscosity ([1]; 308.15 K) was 0.374 ± 0.02 mPa·s. The mass density ([1]; 313.15 K) was 724.32 ± 0.51 kg/m3, the speed of sound ([1]; 313.15 K) was 1129 ± 2 m/s and the viscosity ([1]; 313.15 K) was 0.355 ± 0.02 mPa·s.
In the case of CCOC(=O)OCC [diethyl carbonate], the mass density ([1]; 293.15 K) is reported as 974.8 ± 0.27 kg/m3, the speed of sound ([1]; 293.15 K) is reported as 1197 ± 2 m/s and 1198 ± 2 m/s and the viscosity ([1]; 293.15 K) is reported as 0.809 ± 0.021 mPa·s. For the same molecule, the mass density ([1]; 298.15 K) was 969.21 ± 0.27 kg/m3, the speed of sound ([1]; 298.15 K) was 1177 ± 2 m/s and the viscosity ([1]; 298.15 K) was 0.75 ± 0.021 mPa·s. The mass density ([1]; 303.15 K) was 963.58 ± 0.27 kg/m3, the speed of sound ([1]; 303.15 K) was 1156 ± 2 m/s and 1157 ± 2 m/s and the viscosity ([1]; 303.15 K) was 0.702 ± 0.021 mPa·s. It also gave a mass density ([1]; 308.15 K) of 957.93 ± 0.28 kg/m3, a speed of sound ([1]; 308.15 K) of 1136 ± 2 m/s and a viscosity ([1]; 308.15 K) of 0.658 ± 0.02 mPa·s. It also gave a mass density ([1]; 313.15 K) of 952.26 ± 0.28 kg/m3, a speed of sound ([1]; 313.15 K) of 1116 ± 2 m/s and a viscosity ([1]; 313.15 K) of 0.618 ± 0.02 mPa·s.
Work on CCOC(=O)OCC [diethyl carbonate] + C1CCCC1 yielded a viscosity ([2]; 293.15 K, x1 = 1) of 0.809 ± 0.021 mPa·s, a mass density ([2]; 293.15 K, x1 = 1) of 974.8 ± 0.27 kg/m3 and a speed of sound ([2]; 293.15 K, x1 = 1) of 1197 ± 2 m/s. The viscosity ([2]; 298.15 K, x1 = 1) was 0.75 ± 0.021 mPa·s, the mass density ([2]; 298.15 K, x1 = 1) was 969.21 ± 0.27 kg/m3 and the speed of sound ([2]; 298.15 K, x1 = 1) was 1177 ± 2 m/s. It also gave a viscosity ([2]; 303.15 K, x1 = 1) of 0.702 ± 0.021 mPa·s, a mass density ([2]; 303.15 K, x1 = 1) of 963.58 ± 0.27 kg/m3 and a speed of sound ([2]; 303.15 K, x1 = 1) of 1156 ± 2 m/s. For the same molecule, the viscosity ([2]; 308.15 K, x1 = 1) was 0.658 ± 0.02 mPa·s, the mass density ([2]; 308.15 K, x1 = 1) was 957.93 ± 0.28 kg/m3 and the speed of sound ([2]; 308.15 K, x1 = 1) was 1136 ± 2 m/s. It also gave a viscosity ([2]; 313.15 K, x1 = 1) of 0.618 ± 0.02 mPa·s, a mass density ([2]; 313.15 K, x1 = 1) of 952.26 ± 0.28 kg/m3 and a speed of sound ([2]; 313.15 K, x1 = 1) of 1116 ± 2 m/s.
Molecule COC(=O)OC [dimethyl carbonate] has a mass density ([1]; 293.15 K) of 1069.9 ± 0.56 kg/m3, a speed of sound ([1]; 293.15 K) of 1220 ± 2 m/s and a viscosity ([1]; 293.15 K) of 0.623 ± 0.021 mPa·s. The mass density ([1]; 298.15 K) was 1063.33 ± 0.56 kg/m3, the speed of sound ([1]; 298.15 K) was 1198 ± 2 m/s and the viscosity ([1]; 298.15 K) was 0.584 ± 0.021 mPa·s. The mass density ([1]; 303.15 K) was 1056.71 ± 0.55 kg/m3, the speed of sound ([1]; 303.15 K) was 1177 ± 2 m/s and the viscosity ([1]; 303.15 K) was 0.549 ± 0.02 mPa·s. For the same molecule, the mass density ([1]; 308.15 K) was 1050.07 ± 0.55 kg/m3, the speed of sound ([1]; 308.15 K) was 1155 ± 2 m/s and the viscosity ([1]; 308.15 K) was 0.517 ± 0.02 mPa·s. For the same molecule, the mass density ([1]; 313.15 K) was 1043.39 ± 0.54 kg/m3, the speed of sound ([1]; 313.15 K) was 1134 ± 2 m/s and the viscosity ([1]; 313.15 K) was 0.488 ± 0.02 mPa·s.
Work on COC(=O)OC [dimethyl carbonate] + C1CCCC1 yielded a viscosity ([2]; 293.15 K, x1 = 1) of 0.623 ± 0.021 mPa·s, a mass density ([2]; 293.15 K, x1 = 1) of 1069.9 ± 0.56 kg/m3 and a speed of sound ([2]; 293.15 K, x1 = 1) of 1220 ± 2 m/s. It also gave a viscosity ([2]; 298.15 K, x1 = 1) of 0.584 ± 0.021 mPa·s, a mass density ([2]; 298.15 K, x1 = 1) of 1063.33 ± 0.56 kg/m3 and a speed of sound ([2]; 298.15 K, x1 = 1) of 1198 ± 2 m/s. It also gave a viscosity ([2]; 303.15 K, x1 = 1) of 0.549 ± 0.02 mPa·s, a mass density ([2]; 303.15 K, x1 = 1) of 1056.71 ± 0.55 kg/m3 and a speed of sound ([2]; 303.15 K, x1 = 1) of 1177 ± 2 m/s. The viscosity ([2]; 308.15 K, x1 = 1) was 0.517 ± 0.02 mPa·s, the mass density ([2]; 308.15 K, x1 = 1) was 1050.07 ± 0.55 kg/m3 and the speed of sound ([2]; 308.15 K, x1 = 1) was 1155 ± 2 m/s. For the same molecule, the viscosity ([2]; 313.15 K, x1 = 1) was 0.488 ± 0.02 mPa·s, the mass density ([2]; 313.15 K, x1 = 1) was 1043.39 ± 0.54 kg/m3 and the speed of sound ([2]; 313.15 K, x1 = 1) was 1134 ± 2 m/s.
Molecule CC1CCCCC1 [methylcyclohexane] has a speed of sound ([1]; 293.15 K) of 1237 ± 2 m/s, a viscosity ([1]; 293.15 K) of 0.729 ± 0.021 mPa·s and a speed of sound ([1]; 298.15 K) of 1215 ± 2 m/s. The viscosity ([1]; 298.15 K) was 0.681 ± 0.021 mPa·s, the speed of sound ([1]; 303.15 K) was 1193 ± 2 m/s and the viscosity ([1]; 303.15 K) was 0.637 ± 0.021 mPa·s. For the same molecule, the speed of sound ([1]; 308.15 K) was 1172 ± 2 m/s, the viscosity ([1]; 308.15 K) was 0.598 ± 0.021 mPa·s and the speed of sound ([1]; 313.15 K) was 1150 ± 2 m/s. It also gave a viscosity ([1]; 313.15 K) of 0.562 ± 0.021 mPa·s.
Molecule CC1CCCCC1 [methylcyclohexane] + CCOC(=O)OCC has a viscosity ([2]; 293.15 K, x2 = 0) of 0.729 ± 0.021 mPa·s, a speed of sound ([2]; 293.15 K, x2 = 0) of 1237 ± 2 m/s and a viscosity ([2]; 298.15 K, x2 = 0) of 0.681 ± 0.021 mPa·s. For the same molecule, the speed of sound ([2]; 298.15 K, x2 = 0) was 1215 ± 2 m/s, the viscosity ([2]; 303.15 K, x2 = 0) was 0.637 ± 0.021 mPa·s and the speed of sound ([2]; 303.15 K, x2 = 0) was 1193 ± 2 m/s. The viscosity ([2]; 308.15 K, x2 = 0) was 0.598 ± 0.021 mPa·s, the speed of sound ([2]; 308.15 K, x2 = 0) was 1172 ± 2 m/s and the viscosity ([2]; 313.15 K, x2 = 0) was 0.562 ± 0.021 mPa·s. The speed of sound ([2]; 313.15 K, x2 = 0) was 1150 ± 2 m/s.
